The source of these data is patent publication US6649797B2, “Compounds and methods of use to treat infectious diseases” (The Picower Institute for Medical Research, priority 1996, dated 2003).

In one series the test system is HIV-1. In words: HIV-1 production in cultured monocytes at fixed 100 nM. Format: cell-based. To be noted: monocytes infected 10 days prior to assay (10 ng p24/10^6 cells), percentage of untreated control. As for the experimental part:
Alternatively, the compounds may all be compared for inhibition of HIV replication at a fixed concentration. Presented in Table II are compounds that were used at a concentration of 100 nM to inhibit the production of HIV-1 in cultured monocytes infected with HIV-1 10 days prior to assay (10 ng of p24/10^6 cells). The production of HIV-1 in each treated culture is reported as percentage of untreated control.

In a further series the test system is Plasmodium falciparum. The series is described as follows: Antimalarial activity in vitro, [3H]-hypoxanthine incorporation. Format: cell-based. To be noted: clone Dd2. The text has this: The antimalarial properties of the compounds of the invention can be analyzed by techniques, assays and experimental animal models well known in the art. For example, the inhibition of growth of Plasmodium falciparum in vitro by the compounds may be assessed by the hypoxanthine-incorporation method (Desjardins et al., 1979, Antimicrob. Ag. Chemother. 16:710-718). […] The in vivo efficacy of the compounds can also be tested in mouse models in which parasitemia is enumerated following administration of the compound (Ager, A. L. 1984, Rodent malaria models, pp 225-264. In Handbook of Experimental Pharmacology vol. 68, Antimalarial Drugs, Peters and Richards eds, Springer-Verlag, Berlin).
The antimalarial activity of the compounds was determined essentially as described in Desjardins et al. supra. Fifty μl of various concentrations of a compound of the invention, chloroquine, or pyrimethamine were added to the wells of microtiter plates, followed by 200 μl of ring-stage, synchronized, P. falciparum-infected erythrocytes (final hematocrit=1.5%, final parasitemia=1-5%). The plates were incubated for 24 hr in a candle jar kept at 37° C., and then 25 μl of [^3H]-hypoxanthine (Amersham, Arlington Heights, ILL.; 2.5 μl Ci/well) was added. The plates were then incubated for a further 24 hr, before harvesting onto Unifilter-96 GF/C filter-microplates (Packard; Meriden, Conn.). Twenty-five μl of Microscint scintillation fluid (Packard) was added to each well of the filter-microplate, which was subsequently counted in a Top-count microplate scintillation counter (Packard). The percent of [^3H]-hypoxanthine uptake relative to control infect-erythrocytes was used to determine the IC50 value for the compounds by non-linear regression for LD50 determination.

Series [1] can be described thus: Pharmacokinetics in mice (plasma, HPLC). Format: in vivo, mouse. As to conditions: for Dose: calculated from clearance for target serum conc. (No. 2: 10 nM; No. 11: 50 nM; No. 15: 15 nM); for AUC / Cmax / bioavailability / Tmax: female, ND4 Swiss Webster, plasma; for Tmax: read-out: tmax (converted).
Description: Standard addition curves for each test compound were constructed by adding increased amounts of drug to mouse or human A^+ plasma (Long Island Blood Services; Melville, N.Y). […] The column was washed with 1.0 ml of water and then eluted with 1.0 ml of 10 mM tetramethylammonium chloride/10 mM heptane sulfonate/4.2 mM H3PO4/95% CH3CN/5% H2O (Buffer C). The eluted sample was reduced to dryness in a rotary evaporator and resuspended in 1.0 ml Buffer A.
Two hundred μl of the resuspended sample was injected onto a Hewlett-Packard model 1090 high performance liquid chromatography system (HPLC)(Wilmington, Del.) equipped with a photodiode array ultraviolet/visible spectrophotometric detector, autosampler, and Chemstation operating software. The column used was a 250×4.6 mm Zorbax RX-C8 column (Mac-Mod Analyticals; Chadd's Ford, Pa.) kept at room temperature and run at 1.5 ml/min. The mobile phase used was Buffer A and 10 mM tetramethylammonium chloride/10 mM heptane sulfonate/4.2 mM H3PO4/75% CH3CN/25% H2O (Buffer B), with all runs initiated at 10% Buffer B. A linear 30 min gradient to 60% Buffer B was then performed, followed by a 4 min reverse gradient to initial conditions.
Female ND4 Swiss Webster mice (21-24 g) were obtained from Harlan Sprague Dawley (Indianapolis, Ind.) and randomly placed in groups of five in cages with free access to food and water. […] The other CNI compounds were administered intraperitoneally or by oral gavage as a solution in water titrated with sufficient HCl to dissolve the drug. At various time points, ranging from 5 min to 4 days, a single group of animals was euthanized by carbon dioxide inhalation and bled by cardiac puncture using heparin as an anticoagulant. The blood from the five mice in the group was pooled and centrifuged at 14000× g for 10 min. The volume of plasma was measured, and equal volume of Buffer A added, and the mixture extracted and analyzed as described above, except that the dried eluates were resuspended in 200 μl Buffer A and 100 μl was injected onto the high performance liquid chromatography (HPLC) system.
The area under the plasma concentration-time curve (AUC) was determined, and bioavailability was measured as AUCoral/AUCi.p. A and B represent the zero time intercept of the distribution and elimination phases respectively, and a and β the respective slopes of the phases multiplied by 2.303. The t/2α and t1/2β are calculated half-lives of the drug in each phase (0.693/α and 0.693/β respectively). The volume of distribution (VD) was calculated as dose/B, and the total clearance rate (Cltot) calculated as β*VD. Cmax and tmax are the maximal plasma concentration and time of this measurement, respectively.
A short description of series [2]: Toxicity in mice, median lethal dose by intraperitoneal injection. It counts as in vivo, mouse. As to conditions: for LD50: mouse, in vivo, ip, read-out: LD50 ± standard deviation. Here is the method: The doses of compounds of the invention found to be lethal to 50% of the mice (LD50) were determined by intraperitoneal injection of groups of five animals with increasing doses of each compound. CNI-0294 was administered from 0, 2, 10, 20, 40, 80, 160, 320, 640, 1280 mg/kg in 0.5 ml of water/HCl; CNI-1594 at 0, 2.4, 5, 10, 20, 40, 80 mg/kg in 0.5 ml of water/HCl; CNI-1794 at 0, 20, 50, 80 mg/kg in 0.5 ml of water/HCl; and CNI-1894 at 0, 10, 20, 40, 80, 240, 480, 960 mg/kg in water/HCl. […] The percentage of animals in each group which died were utilized to calculate the LD50 by non-linear curve fitting with the Enzfit software (Elsevier Bioscience; Cambridge, UK) programmed with the Chou equation (Chou 1976, J Theor Biol 39:253-276)).

Series [3] in a line: In vitro metabolism with mouse liver post-mitochondrial supernatant and NADPH. To be noted: for metabolic conversion (drug altered, as judged by peak area): 60 min incubation. It counts as in vitro ADME. As for the experimental part: Several female ND4 Swiss Webster mice were euthanized by carbon dioxide inhalation and the livers excised and rinsed with ice cold phosphate buffered saline (pH 7.4). The livers were minced, gently homogenized in 50 mM phosphate buffer (pH 7.4) with a Dounce homogenizer, and centrifuged at 9600× g for 20 min. The post-mitochondrial supernatant was kept, glycerol added to 20%, and frozen at −70° C in 1.0 ml aliquots until used. For each incubation, 1.0 ml of a 1.0 mg/ml drug solution was added to 3.0 ml of 50 mM phosphate buffer (pH 7.4), 1.0 ml of 2 mg/ml NADPH in 50 mM phosphate (pH 7.4), and 1.0 ml of the post-mitochondrial supernatant. Five hundred μl of each incubate was then immediately transferred to an ice-cold tube to provide the zero-time sample, and addition 500 μl aliquots removed to ice-cold tubes at 8, 15, 30, and 60 min. The samples were then extracted, and analyzed by HPLC as described in section 7.1. Control incubations were also performed where drug or post-10 mitochondrial supernatant was omitted. […] Peaks in the CNI compound incubations which increased over time, and were not present in control samples lacking the enzyme preparation were treated as putative metabolites.

For series [4], the system named is macrophage-tropic strain of HIV-1. In words: Inhibition of HIV-1 replication in peripheral blood-derived macrophages (IC50, RT or p24 in medium). Format: cell-based. As to conditions: Human immunodeficiency virus 1, Macrophage, 120 h; 50% inhibition of viral growth; RT or p24 in medium about day 5 or 6 post-infection. As for the experimental part:
A quantitative measurement of the activity of the compounds of the invention to block the replication of HIV-1 in non-dividing cells can be determined by culture of a macrophage-tropic strain of HIV-1 on peripheral blood-derived macrophages. The cells are cultured for 5-6 days prior to infection in a medium consisting of DMEM supplemented with 10% type A/B human serum and 200 U/ml Macrophage Colony Stimulating Factor, with half the medium changed after 3 days, to reach a density of about 10^6 cells per 5 ml well. A macrophage-tropic viral stock may be grown on these cells. The concentration of infectious particles in the stock is estimated by measurement of p24 antigen concentration.
To test the effect of compounds of the invention on HIV-1 infection in the above-described culture system, the medium is removed and replaced with medium containing HIV-1 at a concentration of 1 ng of p24 (10^4 TCID50/ml (TCID=tissue culture infectious doses)) and a known concentration of the compound of the invention (the inhibitor). After 24 hours, the cultures are washed to remove non-adherent virus and the culture is re-fed with medium containing the inhibitor at the desired concentration. The amount of replication of HIV-1 is estimated by an assay of the reverse transcriptase activity or by an assay of the concentration of p24 antigen in the culture medium every 2-3 days throughout the post-infection period. In a preferred embodiment the anti-HIV potency of the candidate drug is measured by comparison of the concentration of reverse transcriptase (RT) or of p24 antigen in the medium of the treated and control cultures at the time of the peak of these values in non-treated control cultures, that is about day 5 or 6 post-infection. Repetition at various levels of inhibitor allows for the calculation of the concentration of inhibitor that achieves 50% inhibition of viral growth, IC50. Table I discloses the IC50 of various inhibitors.

A further series deals with HIV-1ADA. The series is described as follows: Anti-HIV activity in primary human monocytes, day 9 (Table IX, FIG. 12C). It counts as cell-based. As to conditions: Human immunodeficiency virus 1, Monocyte, 216 h; day 9 after infection; >10 μM = 50% inhibition not achieved at maximal concentration; read-out: IC50. Here is the method: Monocytes infected with HIV-1ADA were cultured in the presence of CNI-H0294 and CNI-H3094 in various concentrations. Nine days after infection, RT activity in culture supernatants was quantified. The results are presented as percent of total RT activity in untreated cultures (control). Three independent samples were assayed for each drug concentration, and the standard deviation was less than 15%.
[…] A 50% inhibitory concentration (IC50) was determined at day 9 after infection.

Setting [5] is: mouse, ip, 50 mg/kg, vehicle water.
[6] abbreviates: mouse, po, 50 mg/kg, vehicle water.
The mark [7] stands for this setting: mouse, i.p., 50 mg/kg, vehicle water.
[8] abbreviates: mouse, ip, 20 mg/kg, vehicle water.
The mark [9] stands for this setting: mouse, i.p., 20 mg/kg, vehicle water.

SMILES strings stand for the structures. Counter-ions that a name gives are not always drawn. Like-named read-outs stand apart in the source and are kept apart here.

Consider `CC(=O)c1cc(NC(=N)NC(=N)N)cc(C(C)=O)c1.Cl` [Compound No. 12, N-(3,5-diacetylphenyl)biguanide hydrochloride], for which the melting point is 260 to 270 °C (dec.). The “Viral Production” value with HIV-1 is given as 12%.

For the compound `CC(=O)c1cc(Nc2cc(C)nc(N)n2)cc(C(C)=O)c1` [Compound No. 11, 2-amino-4-(3,5-diacetylphenyl)amino-6-methylpyrimidine], the “less active than CNI-0294” value with Plasmodium falciparum is reported as “approximately 5 fold”. Also, the Dose in series [1] is recorded as 13.3 mg/Kg day. Also, in series [1] (setting [5]), the area under the curve (AUC) turned out to be 3930 ng·h/mL and the Cmax turned out to be 5700 ng/mL. For the same compound, the bioavailability in series [1] (mouse, oral, mice, single 50 mg/kg dose, AUCoral against AUCi.p., read-out: relative bioavailability) came out at 15%. Also, in series [1] (setting [6]), the AUC worked out at 570 ng·h/mL and the maximum concentration (Cmax) turned out to be 350 ng/mL. For the same compound, in series [1] (ip, mouse, i.p., 50 mg/kg, vehicle water), the Tmax is 15 min. Further, the bioavailability in series [1] (mouse, oral, 50 mg/kg, vehicle water, AUCoral/AUCi.p., read-out: Bioavailability) came out at 15%. In series [1] (mouse, oral, 50 mg/kg, vehicle water), the Tmax was 15 min. The maximal plasma level in series [1] (mice, oral, single 50 mg/kg dose) amounted to 0.35 µg/mL. Moreover, in series [1] (setting [7]), the “A (zero time intercept of the distribution phase)” value was found to be 5.22 µg/mL, the “B (zero time intercept of the elimination phase)” value was found to be 0.14 µg/mL, the Cltot amounted to 16.50 mL/min and the VD is listed as 5.21 L. Moreover, in series [1] (setting [7]), the t1/2α is 22.8 min, the t1/2β was determined as 219 min, the α was 1.83 h⁻¹ and the β stood at 0.19 h⁻¹. Also, in series [2], the “visible signs of toxicity” value is “well tolerated” and the 50% lethal dose (LD50) was above 160 mg/kg. In series [3], the metabolites produced result is “three minor and one major metabolite”; the “metabolic conversion (drug altered, as judged by peak area)” value is listed as 65.19%. In series [4], this compound displayed an IC50 of 50 nM.

`CC(=O)c1cc(Nc2nc(N)nc(N)n2)cc(C(C)=O)c1` [Compound No. 13, 2-(3,5-diacetylphenyl)amino-4,6-diamino-1,3,5-triazine] had a melting point of 271 to 272 °C. Also, the “Viral Production” value in the series on HIV-1 amounted to 14%.

`CC(=O)c1cccc(Nc2cc(C)[n+](C)c(N)n2)c1` (as salt: iodide) [Compound No. 14, 4-(3-acetylphenyl)amino-2-amino-1,6-dimethylpyrimidinium iodide] returned a melting point of 238 to 240 °C.

As to `CC(=O)c1cccc(Nc2cc(C)nc(N)n2)c1` [Compound No. 15, 4-(3-acetylphenyl)amino-2-amino-6-methylpyrimidine], the Dose in series [1] is given as 5.70 mg/Kg day. In series [1] (setting [8]), this compound displayed an area under the curve (AUC) of 820 ng·h/mL and a Cmax of 1930 ng/mL. Further, the Tmax in series [1] (ip, mouse, i.p., 20 mg/kg, vehicle water) was 15 min. Moreover, in series [1] (setting [9]), the “A (zero time intercept of the distribution phase)” value turned out to be 1.10 µg/mL, the “B (zero time intercept of the elimination phase)” value came to 0.01 µg/mL, the Cltot came to 26.40 mL/min and the t1/2α came out at 19.2 min. In addition, in series [1] (setting [9]), the t1/2β turned out to be 1040 min, the α came out at 2.14 h⁻¹ and the β came out at 0.04 h⁻¹. Besides, in series [2], the “visible signs of toxicity” value was “death occurring in minutes and the animals displaying signs of acute neurotoxicity”; the LD50 stood at 49.04 ± 0.08 mg/kg. Besides, in series [3], the metabolites produced result was “three minor and one major metabolite”; the “metabolic conversion (drug altered, as judged by peak area)” value is 11.74%. Moreover, the IC50 in series [4] amounted to 15 nM.

Take `CC(=O)c1cccc(Nc2cc(C)[n+](C)c(N)n2)c1` [Compound No. 14, 4-(3-acetylphenyl)amino-2-amino-1,6-dimethylpyrimidinium iodide]: the IC50 in the series on HIV-1ADA was 1000 nM; in series [4] it was 10 nM.
